Reference: patent US6943183B2 (Pfizer Inc, priority 2000, dated 2005)

molecular target: T1, SF9 affinity purified rat FPT (Rattus norvegicus, UniProt Q02293+Q04631); assay: PFT (FPT) inhibitory activity assay, radiolabeled farnesyl pyrophosphate and biotinyl peptide, streptavidin beads; assay type: biochemical; conditions: HEPES buffer pH 7.4, 30° C., 30 minutes; read-out: FTase IC50
T1 construct: made in house; host or cells: Sf9 insect cells
How it was run: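 Rat FPT expressed in SF9 cells was incubated 30 minutes at 30° C. with compound (in 10% DMSO), radiolabeled farnesyl pyrophosphate and biotinylated peptide. Buffer: HEPES pH 7.4, ZnCl2 20 μM, MgCl2 and DTT 5 mM each, 0.1% PEG 8000, 5 mM potassium phosphate (also run without phosphate). Product captured on streptavidin beads in magnesium acetate/H3PO4 stop buffer.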

Structure (SMILES) | IC50 [nM]
O=C1CCCc2c1ccc(O[C@H](Cn1ccnc1)c1ccccc1)c2COc1ccc2ccccc2c1 [Compound 85] | 10
C=CCc1c(OC(Cn2ccnc2)c2ccccc2Cl)ccc2c1CCCC2=O (racemic) [Compound 59, (±)-6-[1-(2-Chlorophenyl)-2-imidazolylethoxy]-5-prop-2-enyl-2,3,4-trihydronaphthalen-1-one] | 12
CC(C)COCc1c(O[C@H](Cn2ccnc2)c2ccccc2)ccc2c1CCCC2=O [Compound 19a, 6-((S)-2-Imidazol-1-yl-1-phenyl-ethoxy)-5-isobutoxymethyl-1-3,4-dihydro-2H-naphthalen-1-one] | 1.9
O=C(NCCO)c1ccccc1S(=O)(=O)Cc1c(O[C@H](Cn2ccnc2)c2ccccc2)ccc2c1CCCC2=O [Compound 165, N-(2-Hydroxyethyl)-2-{[(2-{[(1S)-2-(1H-imidazol-1-yl)-1-phenylethyl]oxy}-5-oxo-5,6,7,8-tetrahydro-1-naphthalenyl)methyl]sulfonyl}benzamide] | 6.4
C[C@@H](O)CNC(=O)c1ccc(S(=O)(=O)Cc2c(O[C@H](Cn3ccnc3)c3ccccc3)ccc3c2CCCC3=O)cc1 [Compound 203, N-[(2R)-2-Hydroxypropyl]-4-{[(2-{[(1S)-2-(1H-imidazol-1-yl)-1-phenylethyl]oxy}-5-oxo-5,6,7,8-tetrahydro-1-naphthalenyl)methyl]sulfonyl}benzamide] | 1.2
O=C(O)c1ccc(SCc2c(O[C@H](Cn3ccnc3)c3ccccc3)ccc3c2CCCC3=O)cc1 [Compound 162, 4-{[(2-{[(1S)-2-(1H-Imidazol-1-yl)-1-phenylethyl]oxy}-5-oxo-5,6,7,8-tetrahydro-1-naphthalenyl)methyl]sulfanyl}benzoic Acid] | 8
O=C1CCCc2c1ccc(O[C@H](Cn1ccnc1)c1ccccc1)c2COc1ccc2c(c1)OCO2 [Compound 92, 6-((1S)-2-imidazolyl-1-phenylethoxy)-5-(2H-benzo[d]1,3-dioxolan-5-yloxymethyl)-2,3,4-trihydronaphthalen-1-one] | 4
CC(C)[S+]([O-])Cc1c(O[C@H](Cn2ccnc2)c2ccccc2)ccc2c1CCCC2=O (mixture of isomers) [Compound 143, 6-((S)-2-Imidazol-1-yl-1-phenyl-ethoxy)-5-(propane-2-sulfinylmethyl)-3,4-dihydro-2H-napthalen-1-one] | 1.4
CN(C)CCNC(=O)c1cccc(SCc2c(O[C@H](Cn3ccnc3)c3ccccc3)ccc3c2CCCC3=O)c1 [Compound 178, N-[2-(Dimethylamino)ethyl]-3-{[(2-{[(1S)-2-(1H-imidazol-1-yl)-1-phenylethyl]oxy}-5-oxo-5,6,7,8-tetrahydro-1-naphthalenyl)methyl]sulfanyl}benzamide] | 8
CC(C)[C@@H](Cn1ccnc1)Oc1ccc2c(c1CS(=O)(=O)C(C)C)CCCC2=O [Compound 63g, 6-((S)-1-Imidazol-1-ylmethyl-2-methyl-propoxy)-5-(propane-2-sulfonylmethyl)-3,4-dihydro-2H-napthalen-1-one] | 9.5
CC(C)c1ccc(OCc2c(O[C@H](Cn3ccnc3)c3ccccc3)ccc3c2CCCC3=O)cc1 [Compound 72] | 5
CNC(=O)c1ccccc1S(=O)(=O)Cc1c(O[C@H](Cn2ccnc2)c2ccccc2)ccc2c1CCCC2=O [Compound 164, 2-{[(2-{[(1S)-2-(1H-Imidazol-1-yl)-1-phenylethyl]oxy}-5-oxo-5,6,7,8-tetrahydro-1-naphthalenyl)methyl]sulfonyl)-N-methylbenzamide] | 5.3
CC(O)CNC(=O)c1cccc(S(=O)(=O)Cc2c(O[C@H](Cn3ccnc3)c3ccccc3)ccc3c2CCCC3=O)c1 (stereo partly drawn) [Compound 254, N-(2-Hydroxypropyl)-3-{[(2-{[(1S)-2-(1H-imidazol-1-yl)-1-phenylethyl]oxy}-5-oxo-5,6,7,8-tetrahydro-1-naphthalenyl)methyl]sulfonyl}benzamide] | 1
Cc1ccc(C(C)C)cc1OCc1c(O[C@H](Cn2ccnc2)c2ccccc2)ccc2c1CCCC2=O [Compound 70] | 7
O=C1CCCc2c1ccc(O[C@H](Cn1ccnc1)c1ccccc1)c2COc1ccccc1F [Compound 101] | 3
C=CCc1c(O[C@H](Cn2ccnc2)c2ccccc2)ccc2c1CCCC2=O [Compound 51, 6-((1S)-2-Imidazolyl-1-phenylethoxy)-5-prop-2-enyl-2,3,4-trihydronaphthalen-1-one] | 3
CC(C)Cc1c(O[C@H](Cn2ccnc2)c2ccccc2)ccc2c1CCCC2=O [Compound 55, 6-((1S)-2-Imidazolyl-1-phenylethoxy)-5-(2-methylpropyl)-2,3,4-trihydronaphthalen-1-one] | 1
O=C1CCCc2c1ccc(O[C@H](Cn1ccnc1)c1ccccc1)c2COc1ccc(OC(F)(F)F)cc1 [Compound 96, 6-((1S)-2-Imidazolyl-1-phenylethoxy)-5-{[4-(trifluoromethoxy)phenoxy]methyl}-2,3,4-trihydronaphthalen-1-one] | 5
O=C1CCCc2c1ccc(O[C@H](Cn1ccnc1)c1ccccc1)c2CNS(=O)(=O)c1cc(Cl)sc1Cl [Compound 42d, 2,5-Dichloro-thiophene-3-sulfonic acid [2-((S)-2-imidazol-1-yl-1-phenyl-ethoxy)-5-oxo-5,6,7,8-tetrahydro-naphthalen-1-ylmethyl]-amide; compound with trifluoro-acetic acid] | 2
O=C1CCCc2c1ccc(O[C@H](Cn1ccnc1)c1ccccc1)c2COc1ccc(F)cc1 [Compound 103, 6-((1S)-2-Imidazolyl-1-phenylethoxy)-5-[(4-fluorophenoxy)methyl]-2,3,4-trihydronaphthalen-1-one] | 5

Now those with a lower IC50, led by results:

IC50 [nM] | Structure (SMILES)
0.2 | CC[C@H](CO)NC(=O)c1ccccc1S(=O)(=O)Cc1c(O[C@H](Cn2ccnc2)c2ccccc2)ccc2c1CCCC2=O [Compound 243, N-[(1R)-1-(Hydroxymethyl)propyl]-2-{[(2-{[(1S)-2-(1H-imidazol-1-yl)-1-phenylethyl]oxy}-5-oxo-5,6,7,8-tetrahydro-1-naphthalenyl)methyl]sulfonyl}benzamide]
0.8 | O=C1CCCc2c1ccc(O[C@H](Cn1ccnc1)c1ccccc1)c2NC(=O)c1cccc2cccnc12 [Compound 40g, Quinoline-8-carboxylic acid [2-((S)-2-imidazol-1-yl-1-phenyl-ethoxy)-5-oxo-5,6,7,8-tetrahydro-naphthalen-1-yl]-amide]
0.2 | O=C1CCCc2c1ccc(O[C@H](Cn1ccnc1)c1ccccc1)c2CCc1ccc(F)cc1 [Compound 30, 6-((1S)-2-Imidazolyl-1-phenylethoxy)-5-[2-(4-fluorophenyl)ethyl]-2,3,4-trihydronaphthalen-1-one]
0.8 | O=C1CCCc2c1ccc(O[C@H](Cn1ccnc1)c1ccccc1)c2COCc1ccccc1 [Compound 16, 6-((1S)-2-Imidazolyl-1-phenylethoxy)-5-[(phenylmethoxy)methyl]-2,3,4-trihydronaphthalen-1-one]
0.2 | C=CCNC(=O)c1ccc(SCc2c(O[C@H](Cn3ccnc3)c3ccccc3)ccc3c2CCCC3=O)cc1 [Compound 209, N-Allyl-4-{[(2-{[(1S)-2-(1H-imidazol-1-yl)-1-phenylethyl]oxy}-5-oxo-5,6,7,8-tetrahydro-1-naphthalenyl)methyl]sulfanyl}benzamide]
0.45 | O=C(NC(CO)CO)c1ccc(SCc2c(O[C@H](Cn3ccnc3)c3ccccc3)ccc3c2CCCC3=O)cc1 [Compound 233, N-[2-Hydroxy-1-(hydroxymethyl)ethyl]-4-{[(2-{[(1S)-2-(1H-imidazol-1-yl)-1-phenylethyl]oxy}-5-oxo-5,6,7,8-tetrahydro-1-naphthalenyl)methyl]sulfanyl}benzamide]
0.2 | O=C(NCc1ccco1)c1ccccc1S(=O)(=O)Cc1c(O[C@H](Cn2ccnc2)c2ccccc2)ccc2c1CCCC2=O [Compound 231, N-(2-Furylmethyl)-2-{[(2-{[(1S)-2-(1H-imidazol-1-yl)-1-phenylethyl]oxy}-5-oxo-5,6,7,8-tetrahydro-1-naphthalenyl)methyl]sulfonyl}benzamide]
0.2 | O=C(NC1CCCC1)c1ccc(SCc2c(O[C@H](Cn3ccnc3)c3ccccc3)ccc3c2CCCC3=O)cc1 [Compound 220, N-Cyclopentyl-4-{[(2-{[(1S)-2-(1H-imidazol-1-yl)-1-phenylethyl]oxy}-5-oxo-5,6,7,8-tetrahydro-1-naphthalenyl)methyl]sulfanyl}benzamide]
0.2 | O=C(NC1CC1)c1cccc(SCc2c(O[C@H](Cn3ccnc3)c3ccccc3)ccc3c2CCCC3=O)c1 [Compound 227, N-Cyclopropyl-3-{[(2-{[(1S)-2-(1H-imidazol-1-yl)-1-phenylethyl]oxy}-5-oxo-5,6,7,8-tetrahydro-1-naphthalenyl)methyl]sulfanyl}benzamide]
0.2 | C=CCNC(=O)c1ccccc1SCc1c(O[C@H](Cn2ccnc2)c2ccccc2)ccc2c1CCCC2=O [Compound 208, N-Allyl-2-{[(2-{[(1S)-2-(1H-imidazol-1-yl)-1-phenylethyl]oxy}-5-oxo-5,6,7,8-tetrahydro-1-naphthalenyl)methyl]sulfanyl}benzamide]
0.2 | C=CCNC(=O)c1ccccc1S(=O)(=O)Cc1c(O[C@H](Cn2ccnc2)c2ccccc2)ccc2c1CCCC2=O [Compound 207, N-Allyl-2-{[(2-{[(1S)-2-(1H-imidazol-1-yl)-1-phenylethyl]oxy}-5-oxo-5,6,7,8-tetrahydro-1-naphthalenyl)methyl]sulfonyl}benzamide]
0.4 | COc1ccc(OCc2c(O[C@H](Cn3ccnc3)c3ccccc3)ccc3c2CCCC3=O)cc1 [Compound 65]
0.25 | O=C(NC(CO)CO)c1cccc(SCc2c(O[C@H](Cn3ccnc3)c3ccccc3)ccc3c2CCCC3=O)c1 [Compound 234, N-[2-Hydroxy-1-(hydroxymethyl)ethyl]-3-{[(2-{[(1S)-2-(1H-imidazol-1-yl)-1-phenylethyl]oxy}-5-oxo-5,6,7,8-tetrahydro-1-naphthalenyl)methyl]sulfanyl}benzamide]
